Results as given in paper PMC7464492, “Cisplatin Decreases ENaC Activity Contributing to Renal Salt Wasting Syndrome” (Cancers, 2020).

Target: T1, epithelial Na+ channel (mENaC; α-, β- and γ-mouse ENaC subunits) (Mus musculus, UniProt Q61180+Q9WU38+Q9WU39)
T1 construct: gene Scnn1a; α-, β- and γ-mouse ENaC subunits genetically linked to NH2-terminal eCFP, expressed in CHO cells; with β- and γ-ENaC subunits (Scnn1b, Scnn1g)
T1 sequence (Q61180 1-699): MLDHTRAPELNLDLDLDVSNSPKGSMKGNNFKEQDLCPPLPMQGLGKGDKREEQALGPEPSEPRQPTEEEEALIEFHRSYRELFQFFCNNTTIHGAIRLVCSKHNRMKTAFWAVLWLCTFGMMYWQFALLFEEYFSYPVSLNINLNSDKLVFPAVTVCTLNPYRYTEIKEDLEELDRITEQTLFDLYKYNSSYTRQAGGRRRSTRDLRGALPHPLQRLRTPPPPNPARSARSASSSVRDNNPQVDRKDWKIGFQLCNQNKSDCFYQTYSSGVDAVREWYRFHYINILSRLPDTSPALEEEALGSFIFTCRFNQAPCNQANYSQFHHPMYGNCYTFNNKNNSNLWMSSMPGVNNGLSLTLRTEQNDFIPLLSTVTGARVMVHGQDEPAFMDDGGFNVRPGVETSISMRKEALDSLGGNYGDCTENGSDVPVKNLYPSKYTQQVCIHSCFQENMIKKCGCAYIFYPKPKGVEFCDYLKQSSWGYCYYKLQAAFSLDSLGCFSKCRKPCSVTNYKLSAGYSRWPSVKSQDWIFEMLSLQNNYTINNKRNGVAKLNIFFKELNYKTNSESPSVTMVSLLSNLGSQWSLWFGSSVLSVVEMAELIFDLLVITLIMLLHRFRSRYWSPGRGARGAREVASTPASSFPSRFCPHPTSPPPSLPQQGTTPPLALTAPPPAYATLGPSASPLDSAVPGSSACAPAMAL
T1 sequence (Q9WU38 1-638): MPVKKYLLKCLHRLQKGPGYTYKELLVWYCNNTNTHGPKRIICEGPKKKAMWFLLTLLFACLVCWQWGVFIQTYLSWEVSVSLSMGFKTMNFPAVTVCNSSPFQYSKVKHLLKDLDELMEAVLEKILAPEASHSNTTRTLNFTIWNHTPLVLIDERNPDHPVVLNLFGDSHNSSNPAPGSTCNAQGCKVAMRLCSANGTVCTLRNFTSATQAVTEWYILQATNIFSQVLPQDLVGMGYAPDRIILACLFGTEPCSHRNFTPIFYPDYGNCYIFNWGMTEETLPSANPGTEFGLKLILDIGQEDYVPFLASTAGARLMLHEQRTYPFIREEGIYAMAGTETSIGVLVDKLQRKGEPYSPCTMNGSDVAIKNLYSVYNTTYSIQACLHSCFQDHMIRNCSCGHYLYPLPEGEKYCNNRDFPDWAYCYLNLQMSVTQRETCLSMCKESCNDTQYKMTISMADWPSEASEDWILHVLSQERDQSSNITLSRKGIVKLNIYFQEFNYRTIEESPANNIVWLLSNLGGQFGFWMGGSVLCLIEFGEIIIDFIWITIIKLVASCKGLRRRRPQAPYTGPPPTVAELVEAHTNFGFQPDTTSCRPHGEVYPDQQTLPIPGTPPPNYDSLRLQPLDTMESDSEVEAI
T1 sequence (Q9WU39 1-655): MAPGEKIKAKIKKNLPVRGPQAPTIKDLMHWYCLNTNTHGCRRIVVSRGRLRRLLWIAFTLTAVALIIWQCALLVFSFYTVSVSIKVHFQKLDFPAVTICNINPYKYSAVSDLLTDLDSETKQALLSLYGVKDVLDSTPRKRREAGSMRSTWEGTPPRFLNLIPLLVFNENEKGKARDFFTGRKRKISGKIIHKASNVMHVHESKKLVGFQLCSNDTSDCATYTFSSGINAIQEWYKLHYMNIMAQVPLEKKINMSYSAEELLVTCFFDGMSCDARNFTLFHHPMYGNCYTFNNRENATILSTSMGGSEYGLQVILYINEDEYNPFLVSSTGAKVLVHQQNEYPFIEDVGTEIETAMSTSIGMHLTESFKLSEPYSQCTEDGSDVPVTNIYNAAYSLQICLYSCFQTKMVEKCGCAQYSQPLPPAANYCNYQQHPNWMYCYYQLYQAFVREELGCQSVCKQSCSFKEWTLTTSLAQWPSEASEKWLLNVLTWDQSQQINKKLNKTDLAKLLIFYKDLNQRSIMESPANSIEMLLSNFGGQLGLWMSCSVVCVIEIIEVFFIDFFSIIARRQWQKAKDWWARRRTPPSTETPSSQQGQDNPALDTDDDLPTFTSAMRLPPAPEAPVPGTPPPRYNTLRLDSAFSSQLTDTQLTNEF
Experiment: whole-cell patch clamp dose-response and competition with amiloride in CHO cells (partial inhibitor, Emax […]); direct action inferred, secondary effects not excluded
Assay type: cell-based

[NH2][Pt]([NH2])([Cl])[Cl] [CDDP, cis-diamminedichloroplatinum (II)]
IC50: 1000 ± 180 nM
